Here are results for 30 compounds from US20090093069A1, “Topiramate Immunoassays” (ARK Diagnostics, Inc., priority 2007, published 2009).

One test relates to antibody from rabbit #11341. Nature of the test: Crossreactivity to topiramate metabolites in the homogeneous enzyme immunoassay (HITACHI 917). The test is classed as binding. The note with it: metabolite 50.0 μg/mL, in the presence of 20 μg/mL topiramate. The method, then: % Crossreactivity=100×(“apparent concentration of measurand”/“concentration of crossreactant”)
(§1) The ARK Assay for topiramate is conducted using a liquid, ready-to-use, two-reagent kit. […] Topiramate containing sample is incubated with antibody reagent followed by the addition of the enzyme conjugate reagent. The enzyme conjugate activity decreases upon binding to the antibody. The enzyme conjugate, which is not bound to the antibody, catalyzes the oxidation of glucose 6-phosphate (G6P). The oxidation of G6P is coupled with the reduction of NAD^+ to NADH, which can be measured at 340 nm. The change in the absorbance at 340 nm can be measured spectrophotometrically. The topiramate concentration in a specimen can be measured in terms of G6PDH activity. The increase in the rate at 340 nm is due to the formation of NADH and is proportional to the enzyme conjugate activity. […] The assay rate increases with increasing the concentration of drug in the sample.
The apparent topiramate concentration for the metabolite is the difference in concentration with metabolite minus the concentration without metabolite.
Regarding `CC1(C)O[C@H]2[C@@H]3O[C@](C)(CO)O[C@@H]3CO[C@@]2(COS(N)(=O)=O)O1` [9-OH-Topiramate, 9-hydroxytopiramate], the “% Cross Reactivity” value came to 3.18%. Consider `CC1(C)O[C@H]2[C@@H]3O[C@@](C)(CO)O[C@@H]3CO[C@@]2(COS(N)(=O)=O)O1` [10-OH-Topiramate, 10-hydroxytopiramate], for which the “% Cross Reactivity” value worked out at 3.20%.

The next test has as its system antibodies raised with immunogens (10-KLH, 12-KLH, 12-L-KLH, 19-KLH, 22-KLH and 25-KLH). Nature of the test: Enzyme-based assay format, reactivity of antibodies raised with the immunogens. Type of test: binding.
Settings: not given
From the text:
All the prepared haptens have utility for KLH and G6PDH bio-conjugation. immunogens (10-KLH, 12-KLH, 12-L-KLH, 19-KLH, 22-KLH and 25-KLH) were used to raise antibodies.
For `CC1(C)O[C@@H]2[C@@H](CO[C@@]3(CO)OC(C)(C)O[C@@H]23)O1` [diacetonefructose], the “reactivity of the antibodies” value is listed as “good reactivity”.

The subject of the next test is rabbit polyclonal antibody #11341. Nature of the test: Coadministered drug interference study in the homogeneous enzyme immunoassay (HITACHI 917). The test is classed as binding. To be noted: 5.0 μg/mL drug added to human serum containing 20.0 μg/mL topiramate. The protocol: The antibody was added into the antibody diluent to prepare the antibody reagent. The antibody reagent consists of antibody as prepared above, buffer, stabilizers, preservatives, and the substrates for the enzyme conjugate NAD and glucose 6 phosphate. […] The enzyme conjugate reagent consists of the conjugate, buffer, stabilizers and preservatives.
as §1
A high concentration of each coadministered drug was spiked into normal human serum with containing topiramate 20 μg/mL and assayed. Each sample was assayed in duplicate. […] The percentage concentration above 20.0 μg/mL of topiramate was calculated for each coadministered drug tested.
On to `NC(N)=Nc1nc(CSCCC(N)=NS(N)(=O)=O)cs1` [Famotidine], for which the “% Interference [(20.0 μg/mL Topiramate) − (Result)] ÷ (drug conc.) × 100” value (“% Interference” below) is reported as −0.2%.

Staying with this test, now noted: 10.0 μg/mL drug added to human serum containing 20.0 μg/mL topiramate.
Take `NS(=O)(=O)c1cc(C(=O)O)c(NCc2ccco2)cc1Cl` [Furosemide]: the “% Interference” value is listed as 0.10%.

Staying with this test, now noted: 50.0 μg/mL drug added to human serum containing 20.0 μg/mL topiramate.
With `CC(=O)Nc1nnc(S(N)(=O)=O)s1` [Acetazolamide], the “% Interference” value was determined as 0.56%. The same measure, in the same setting: under `CC(=O)Nc1ccc(O)cc1` [Acetominophen] stands −0.38%; under `CC(C)NCC(O)COc1ccc(CC(N)=O)cc1` (stereo not drawn) [Atenolol], −0.40%. Still for that read-out and setting: the same measure for `O=C1CN=C(c2ccccc2Cl)c2cc([N+](=O)[O-])ccc2N1` [Clonazepam]: 0.70%. Consider `CN1C(=O)CN=C(c2ccccc2)c2cc(Cl)ccc21` [Diazepam], for which the “% Interference” value amounted to 0.64%. Still for that read-out and setting: the same measure for `CC(C)Cc1ccc(C(C)C(=O)O)cc1` (stereo not drawn) [Ibuprofen]: 2.30%. Regarding `O=C1NC(=O)C(c2ccccc2)(c2ccccc2)N1` [Phenytoin], the “% Interference” value was 0.32%.

The test is the same for the next values; noted with them: 100.0 μg/mL drug added to human serum containing 20.0 μg/mL topiramate.
Turning to `CC(=O)Oc1ccccc1C(=O)O` [Acetylsalicyclic Acid], the “% Interference” value is given as 0.25%. Turning to `Cn1c(=O)c2c(ncn2C)n(C)c1=O` [Caffeine], the “% Interference” value is on record as 0.35%. For the compound `NC(=O)N1c2ccccc2C=Cc2ccccc21` [Carbamazepine], the “% Interference” value is −0.43%.

Take `NS(=O)(=O)c1cc(C2(O)NC(=O)c3ccccc32)ccc1Cl` (stereo not drawn) [Chlorthalidone]: the “% Interference” value is 0.16%.

On to `NCC1(CC(=O)O)CCCCC1` [Gabapentin], for which the “% Interference” value was −0.49%. Same read-out and setting: the same measure for `Nc1nnc(-c2cccc(Cl)c2Cl)c(N)n1` [Lamotrogine]: −1.02%; for `COCCc1ccc(OCC(O)CNC(C)C)cc1` (stereo not drawn) [Metoprolol]: 0.35%. The same measure, in the same setting: the same measure for `CCC1(c2ccccc2)C(=O)NC(=O)NC1=O` [Phenobarbitol]: 1.08%; for `CCC1(c2ccccc2)C(=O)NCNC1=O` [Primidone]: −1.83%. Same read-out and setting: the same measure for `COc1ccc(CCN(C)CCCC(C#N)(c2ccc(OC)c(OC)c2)C(C)C)cc1OC` (stereo not drawn) [Verapamil]: 1.07%.

The same test, now with this note: 200.0 μg/mL drug added to human serum containing 20.0 μg/mL topiramate.
On to `CC[C@@H](C(N)=O)N1CCCC1=O` [Levetiracetam], for which the “% Interference” value is reported as −0.45%. In the case of `CCCC(CCC)C(=O)O` [Valproic Acid], the “% Interference” value was 0.50%. Same read-out and setting: under `NS(=O)(=O)Cc1noc2ccccc12` [Zonisamide] stands 0.08%.

Still in this test, the particulars now being: 500.0 μg/mL drug added to human serum containing 20.0 μg/mL topiramate.
Consider `CCC1(C)CC(=O)NC1=O` (stereo not drawn) [Ethosuxamide], for which the “% Interference” value was −0.09%. For the compound `NC(=O)OCC(COC(N)=O)c1ccccc1` [Felbamate], the “% Interference” value amounted to 0.20%.

Staying with this test, now noted: 750.0 μg/mL drug added to human serum containing 20.0 μg/mL topiramate.
Take `O=C(O)c1ccccc1O` [Salicylic Acid]: the “% Interference” value was −5.73%.

Regarding `CCCCNC(=O)NS(=O)(=O)c1ccc(C)cc1` [Tolbutamide], the “% Interference” value was −0.08%.

Still in this test, the particulars now being: 2000.0 μg/mL drug added to human serum containing 20.0 μg/mL topiramate.
In the case of `Nc1ccc(S(N)(=O)=O)cc1` [Sulfanilamide], the “% Interference” value was −0.16%.
